In the supplement of paper PMC10307832:

Tests used:
Assay in all cases: relative viability (nuclei count vs DMSO), 5 days (fraction); higher = more cells survive
XMD13-2 + Tozasertib = compound: C1CC1C(=O)NC2=NNC3=C2C=CC(=C3)C4=CC(=CC=C4)C(=O)NC5CC5 [XMD13-2] + Cc1cc(Nc2cc(N3CCN(C)CC3)nc(Sc3ccc(NC(=O)C4CC4)cc3)n2)n[nH]1 [Tozasertib] (partner 0.1 µM)
How it was run: (§1)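 Lung cancer cell lines were pin-tool dosed in 1536-well plates on the day after seeding, with either a lone drug or a fixed anchor-drug dose plus five library-drug doses (not always all listed) in √10 steps. Nuclei were counted on 4× images after 5 days. Relative viability is the ratio of treated-well to vehicle-well nuclei counts, with each value a median of duplicate plates.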

ALW-II-49-7 + Trametinib = compound: Cc1ccc(C(=O)Nc2cccc(C(F)(F)F)c2)cc1Nc1cncc(C(N)=O)c1 [ALW-II-49-7] + CC(=O)Nc1cccc(-n2c(=O)n(C3CC3)c(=O)c3c(Nc4ccc(I)cc4F)n(C)c(=O)c(C)c32)c1 [Trametinib] (partner 0.02 µM)
How it was run: as §1

ALW-II-49-7 + Dasatinib = compound: Cc1ccc(C(=O)Nc2cccc(C(F)(F)F)c2)cc1Nc1cncc(C(N)=O)c1 [ALW-II-49-7] + Cc1nc(Nc2ncc(C(=O)Nc3c(C)cccc3Cl)s2)cc(N2CCN(CCO)CC2)n1 [Dasatinib] (partner 0.075 µM)
How it was run: as §1

ALW-II-49-7 + Phenformin = compound: Cc1ccc(C(=O)Nc2cccc(C(F)(F)F)c2)cc1Nc1cncc(C(N)=O)c1 [ALW-II-49-7] + N=C(N)NC(=N)NCCc1ccccc1 [Phenformin] (partner 250 µM)
How it was run: as §1

Cell Line	relative viability (XMD13-2 + Tozasertib; first compound 0.05 µM)	relative viability (XMD13-2 + Tozasertib; first compound 0.1581 µM)	relative viability (XMD13-2 + Tozasertib; first compound 0.5 µM)	relative viability (XMD13-2 + Tozasertib; first compound 1.581 µM)	relative viability (XMD13-2 + Tozasertib; first compound 5 µM)	relative viability (ALW-II-49-7 + Trametinib; first compound 0.08 µM)	relative viability (ALW-II-49-7 + Trametinib; first compound 0.253 µM)	relative viability (ALW-II-49-7 + Trametinib; first compound 0.8 µM)	relative viability (ALW-II-49-7 + Trametinib; first compound 2.53 µM)	relative viability (ALW-II-49-7 + Trametinib; first compound 8 µM)	relative viability (ALW-II-49-7 + Dasatinib; first compound 0.08 µM)	relative viability (ALW-II-49-7 + Dasatinib; first compound 0.253 µM)	relative viability (ALW-II-49-7 + Dasatinib; first compound 0.8 µM)	relative viability (ALW-II-49-7 + Dasatinib; first compound 2.53 µM)	relative viability (ALW-II-49-7 + Dasatinib; first compound 8 µM)	relative viability (ALW-II-49-7 + Phenformin; first compound 0.08 µM)	relative viability (ALW-II-49-7 + Phenformin; first compound 0.253 µM)	relative viability (ALW-II-49-7 + Phenformin; first compound 0.8 µM)	relative viability (ALW-II-49-7 + Phenformin; first compound 2.53 µM)	relative viability (ALW-II-49-7 + Phenformin; first compound 8 µM)
COR-L 105	0.374	0.385	0.339	0.376	0.425	0.443	0.401	0.43	0.453	0.396	0.304	0.308	0.326	0.272	0.329	0.423	0.48	0.471	0.466	0.47
LCLC-97TM1	0.235	0.198	0.209	0.194	0.104	0.184	0.207	0.198	0.161	0.223	0.808	0.944	0.808	0.88	0.851	0.44	0.425	0.451	0.393	0.459
NCI-H520	0.495	0.491	0.515	0.395	0.462	0.62	0.661	0.53	0.552	0.519	0.218	0.192	0.202	0.172	0.177	0.57	0.604	0.624	0.681	0.562
NCI-H1993	0.627	0.529	0.565	0.615	0.545	0.583	0.481	0.648	0.608	0.445	0.492	0.533	0.423	0.545	0.666	0.535	0.546	0.542	0.544	0.502
NCI-H1437	0.427	0.438	0.411	0.395	0.404	0.486	0.573	0.332	0.512	0.509	0.414	0.404	0.425	0.309	0.333	0.266	0.297	0.301	0.297	0.263
LC-2-ad	0.519	0.528	0.436	0.41	0.45	0.94	0.917	0.881	0.858	0.945	0.481	0.412	0.501	0.7	0.387	0.478	0.555	0.58	0.638	0.531
HARA	0.0933	0.117	0.106	0.0964	0.105	1.02	0.513	0.794	0.64	0.675	0.351	0.272	0.148	0.22	0.161	0.452	0.476	0.345	0.461	0.482
NCI-H650	0.783	0.748	0.781	0.716	0.723	0.876	1.16	0.993	0.996	0.929	0.42	0.518	0.421	0.482	0.341	0.519	0.481	0.396	0.449	0.334
NCI-H1975	0.967	0.739	0.735	0.631	0.72	0.384	0.581	0.288	0.367	0.311	0.298	0.451	0.323	0.349	0.34	0.393	0.461	0.39	0.415	0.412
NCI-H2085	0.824	0.806	0.905	0.821	0.754	0.534	0.512	0.477	0.562	0.518	0.236	0.168	0.239	0.215	0.213	0.754	0.639	0.677	0.889	0.693
NCI-H3122	0.467	0.395	0.378	0.377	0.373	0.243	0.235	0.292	0.311	0.222	0.83	0.81	0.737	0.891	0.834	0.394	0.366	0.381	–	0.302
NCI-H1651	0.721	0.807	0.64	0.759	0.672	0.839	0.772	0.824	0.781	0.808	0.317	0.393	0.432	0.507	0.517	0.345	0.312	0.376	0.317	0.321
NCI-H522	0.531	0.651	0.593	0.483	0.412	0.883	0.665	0.867	0.82	0.853	0.979	0.81	1.05	0.772	0.987	0.678	0.667	0.687	0.576	0.732
ABC-1	0.187	0.2	0.163	0.213	0.205	–	–	–	–	–	0.501	0.627	0.506	0.656	0.483	0.3	0.244	0.249	0.26	0.262
NCI-H1563	–	–	–	–	–	–	–	–	–	–	0.442	0.466	0.441	0.477	0.486	0.65	0.71	0.67	0.683	0.606
NCI-H1792	–	–	–	–	–	0.583	0.436	0.42	0.369	0.471	0.896	0.757	0.876	0.355	0.732	–	–	0.228	0.147	0.258
NCI-H1648	0.5	0.314	0.608	0.51	0.342	0.522	0.317	0.462	0.347	0.449	–	–	–	–	–	–	–	–	–	–
A549	–	–	–	–	–	–	–	–	–	–	–	–	–	–	–	0.19	0.125	0.117	0.0978	0.201
